How the values were obtained:
BRDT-1 = BRDT-1 (Homo sapiens, UniProt Q58F21); experiment: biochemical; type: binding; details: IC50 (μM) BRDT-1, Alpha Screen, KAc-histone H4 peptide (K5/8/12/16Ac)
BRD4-1 = BRD4-1 (Homo sapiens, UniProt O60885); experiment: biochemical; type: binding; details: IC50 (μM) BRD4-1, Alpha Screen, KAc-histone H4 peptide (K5/8/12/16Ac)
VEGFR-1 = details: read-out: IC50 VEGFR-1; cited from earlier work
VEGFR-2 = details: read-out: IC50 VEGFR-2; cited from earlier work
BET bromodomains = details: cited from earlier work

## COc1cc(Nc2ncc(F)c(Nc3ccc4c(n3)N(COP(=O)(O)O)C(=O)C(C)(C)O4)n2)cc(OC)c1OC [Fostamatinib]
BRDT-1
  IC50: > 20 µM
BRD4-1
  IC50: > 20 µM

## COc1cc(Nc2nccc(Nc3ccc4c(C)n[nH]c4c3)n2)cc(OC)c1OC [GW612286X]
BRDT-1
  IC50: 7.6 µM

## Cc1ccc(Nc2nccc(N(C)c3ccc4c(C)n(C)nc4c3)n2)cc1S(N)(=O)=O [Pazopanib]
VEGFR-1
  IC50: 0.01 µM
VEGFR-2
  IC50: […]

## O=c1cc(N2CCOCC2)oc2c(-c3ccccc3)cccc12 [LY294002]
BET bromodomains
  inhibition of BET bromodomains: modest inhibitor of BET bromodomains

— PMC4032195 (ACS Chemical Biology, 2014)
